What all share (type): in vivo
Assay [1] concerns adult brown dog ticks (Rhipicephalus sanguineus). Put plainly: Rhipicephalus sanguineus in-vitro contact test with adult brown dog ticks. The conditions noted are these: after 48 hours, read-out: efficacy (ticks dead or moribund); for pest or weed control at 1 µg/cm2, 100 g/ha: 1 μg/cm^2 (=100 g/ha); for pest or weed control at 5 µg/cm2, 500 g/ha: 5 μg/cm^2 (=500 g/ha). Summed up:
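Compound in acetone coated onto glass tube inner walls at 900 ppm, giving 5 μg/cm^2. Adult ticks (5-10 per tube) held at room temperature for 48 h, then placed on a 45-50° C. heating plate for up to 5 min. Ticks unable to climb away counted dead or moribund; efficacy given as % dead/moribund.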

Assay [2] concerns caterpillars of the fall army worm (Spodoptera frugiperda). Description: Spodoptera frugiperda spray test (cotton leaves). The note with it: 168 h. An outline of the steps: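 Cotton leaves sprayed with compound in water/DMF with 1000 ppm alkylaryl polyglycol ether emulsifier, ammonium salt and/or penetration enhancer at 1000 ppm added if necessary, then infested with fall armyworm caterpillars. Mortality in % scored after 7 days; 100% means all caterpillars killed.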

Assay [3] concerns adult cat fleas (Ctenocephalides felis). Description: Ctenocephalides felis in-vitro contact test, adult cat flea. The conditions noted are these: 5 μg/cm^2 (=500 g/ha), after 48 hours, read-out: efficacy (fleas dead or moribund). An outline of the steps:
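Acetone solutions were coated on glass tube walls, 900 ppm giving 5 μg/cm^2. After drying, 5-10 adult fleas per tube were held 48 h at room temperature. Fleas unable to climb away from a 45-50 °C heating plate within 5 min were scored dead or moribund, as % efficacy.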

Assay [4] concerns larvae of the banded cucumber beetle (Diabrotica balteata). Put plainly: Diabrotica balteata spray test. The conditions noted are these: 168 h, after 7 days, wheat seeds, read-out: efficacy (seedlings grown up); for pest or weed control at 32 µg/disc, 100 g/ha: 100 g/ha (=32 μg/well). An outline of the steps: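 Germinated wheat seedlings (5 per well, agar plates) sprayed with compound in acetone/DMF diluted in water with 1000 ppm emulsifier, then infested with 10-20 larvae per unit. Efficacy scored after 7 days as % seedling growth relative to untreated, uninfested control (100% = normal growth, 0% = none).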

The subject of assay [5] is Anopheles funestus strain FUMOZ-R. Put plainly: Anopheles funestus test (ANPHFU surface treatment & contact assay). The conditions noted are these: 24 hours after contact, read-out: efficacy (mortality). The method, then:
(§1) Solvent: Aceton+2000 ppm rapeseed oil methyl ester (RME)
In order to produce a sufficient, active ingredient containing solution it is necessary to solve the test compound in the solvent-mix (acetone at 2 mg/ml/RME 2000 ppm). This solution is pipetted onto a glazed tile and after evaporation of the acetone, adult mosquitoes of the species Anopheles funestus strain FUMOZ-R (Hunt et al., Med. Vet. Entomol. 2005 September; 19(3): 271-275) are placed onto the dried surface. The exposure time is 30 minutes.
(§2) Mortality in percent (%) is determined 24 hours after contact of the insects to the treated surface. 100% mortality means that all tested insects are dead, whereas 0% means that no insect died.

Assay [6] concerns green peach aphid (Myzus persicae). Description: Myzus persicae spray test. The conditions noted are these: foliar, 120 h, 100 g/ha, after 5 days, Chinese cabbage leaf disks. Summed up:
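Chinese cabbage leaf disks carrying all instars of Myzus persicae were sprayed with compound. The formulation was acetone/dimethylformamide diluted in water with 1000 ppm alkylarylpolyglycol ether emulsifier. Percent mortality was scored after 5 days, with 100% meaning all aphids killed.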

Assay [7] deals with cattle ticks (Rhipicephalus microplus) strain Parkhurst, SP-resistant. Put plainly: Rhipicephalus (Boophilus) microplus dip test. The note with it: 100 ppm, egg deposition after 7 days. As for the experimental part: Test animal: cattle ticks (Rhipicephalus microplus) strain Parkhurst, SP-resistant
Solvent: dimethyl sulfoxide
To produce a suitable preparation of active compound, 10 mg of active compound are dissolved in 0.5 mL solvent, and the concentrate is diluted with water to the desired concentration.
This compound solution is pipetted into tubes. 8-10 engorged, adult, female cattle ticks (Rhipicephalus microplus) are placed in perforated tubes. These tubes are immersed in the aqueous compound solution until the ticks are completely moistened. After the liquid has drained off, the ticks are transferred to a filter paper in a plastic tray and stored in a climate chamber.
After 7 days egg deposition of fertile eggs is monitored. Eggs where fertility is not visible are stored in a climate chamber till hatching after about 42 days. An efficacy of 100% means all eggs are infertile; 0% means all eggs are fertile.

Assay [8] concerns Blattella germanica strain PAULINIA
Put plainly: Blattella germanica test (BLTTGE surface treatment & contact assay). The conditions noted are these: 24 hours after contact, read-out: efficacy (mortality). As for the experimental part:
as §1
In order to produce a sufficient, active ingredient containing solution it is necessary to solve the test compound in the solvent-mix (acetone at 2 mg/ml/RME 2000 ppm). This solution is pipetted onto a glazed tile and after evaporation of the acetone, adult animals of the species Blattella germanica strain PAULINIA are placed onto the dried surface. The exposure time is 30 minutes.
as §2

The mark [9] stands for this setting: surface concentration 4 mg/m^2, 30 minutes exposure.
[10] abbreviates: surface concentration 20 mg/m^2, 30 minutes exposure.

These results are taken from US20230028441A1, “NOVEL HETEROARYL-TRIAZOLE COMPOUNDS AS PESTICIDES” (Bayer Aktiengesellschaft, priority 2019, published 2023).

Consider `CC(NC(=O)c1cc(Cl)cc(C(F)(F)F)c1)c1nc(N)nn1-c1ccc(Cl)cn1` (racemic) [I-006, N-[1-[5-amino-2-(5-chloro-2-pyridyl)-1,2,4-triazol-3-yl]ethyl]-3-chloro-5-(trifluoromethyl)benzamide], for which, in assay [1], the pest or weed control at 1 µg/cm2, 100 g/ha was determined as 80% and the pest or weed control at 5 µg/cm2, 500 g/ha is 100%. This compound also had a mortality at 20 ppm in assay [2] of 100%. Besides, the pest or weed control at 5 µg/cm2 in assay [3] was 100%. Moreover, the pest or weed control at 32 µg/disc, 100 g/ha in assay [4] is 100%. Besides, in assay [4] (500 g/ha (=160 μg/well)), the pest or weed control at 160 µg/disc, 500 g/ha came out at 100%.

Turning to `CNc1nc(C(C)NC(=O)c2cc(C(F)(F)F)cc(C(F)(F)F)c2)n(-c2ncccn2)n1` (stereo not shown) [I-088], the pest or weed control at 1 µg/cm2, 100 g/ha in assay [1] was determined as 100%. Further, the pest or weed control at 5 µg/cm2, 500 g/ha in assay [1] came to 100%. Further, in assay [3], the pest or weed control at 5 µg/cm2 came to 100%. For the same compound, the mortality at 4 mg/m2 in assay [5] (setting [9]) and in assay [8] (setting [9]) was 90 to 100% throughout. For the same compound, the mortality at 20 mg/m2 in assay [5] (setting [10]) and in assay [8] (setting [10]) was 90 to 100% each time. Also, in assay [4], the pest or weed control at 32 µg/disc, 100 g/ha was found to be 100%. The mortality at 100 g/ha in assay [6] turned out to be 100%. For the same compound, in assay [7], the “efficacy (infertile eggs)” value is recorded as 100%.

In general, mortality refers to the share of the test organisms that died.
